± gives the uncertainty stated by the source.
Experiment: xn = mol fraction of the nth substance listed

CCCC[n+]1ccn(C)c1.O=S(=O)([N-]S(=O)(=O)C(F)(F)F)C(F)(F)F + CCO
Conditions	electrical conductivity [S/m]	viscosity [mPa·s]
293 K, 100 kPa, x1 = 0.5784	–	20.7 ± 1
293.3 K, 100 kPa, x1 = 0.4606	–	13.8 ± 1.1
293.3 K, 100 kPa, x1 = 0.747	–	32.1 ± 2.1
293.61 K, 100 kPa, x1 = 0.2688	–	6.37 ± 0.64
293.61 K, 100 kPa, x1 = 1	–	61.8 ± 3.9
293.91 K, 100 kPa, x1 = 0.2129	–	5.12 ± 0.24
293.91 K, 100 kPa, x1 = 0.4606	–	13.5 ± 1
293.91 K, 100 kPa, x1 = 0.6609	–	24.2 ± 2
294.21 K, 100 kPa, x1 = 0.4215	–	12.22 ± 0.67
294.21 K, 100 kPa, x1 = 0.6609	–	23.9 ± 1.4
294.21 K, 100 kPa, x1 = 1	–	60.2 ± 3.8
294.52 K, 100 kPa, x1 = 0.747	–	30.8 ± 1.8
294.52 K, 100 kPa, x1 = 0.8264	–	38.5 ± 2.4
294.52 K, 100 kPa, x1 = 1	–	59.4 ± 3.7
294.82 K, 100 kPa, x1 = 0.4215	–	11.98 ± 0.66
294.82 K, 100 kPa, x1 = 1	–	58.6 ± 3.6
295.12 K, 100 kPa, x1 = 0.4215	–	11.87 ± 0.65
295.12 K, 100 kPa, x1 = 0.747	–	30.1 ± 1.8
295.42 K, 100 kPa, x1 = 0.2129	–	4.94 ± 0.25
295.42 K, 100 kPa, x1 = 0.2688	–	6.11 ± 0.35
295.42 K, 100 kPa, x1 = 0.4606	–	12.94 ± 0.75
295.73 K, 100 kPa, x1 = 0.8264	–	36.7 ± 2.3
296.64 K, 100 kPa, x1 = 0.2688	–	5.94 ± 0.34
296.64 K, 100 kPa, x1 = 0.4606	–	12.48 ± 0.72
296.64 K, 100 kPa, x1 = 1	–	54.1 ± 3.2
296.94 K, 100 kPa, x1 = 0.4606	–	12.36 ± 0.71
296.94 K, 100 kPa, x1 = 0.747	–	28.4 ± 1.6
297.24 K, 100 kPa, x1 = 0.2688	–	5.85 ± 0.34
297.24 K, 100 kPa, x1 = 0.4215	–	11.09 ± 0.61
297.24 K, 100 kPa, x1 = 0.5784	–	18.17 ± 0.99
297.24 K, 100 kPa, x1 = 0.747	–	28.1 ± 1.6
297.55 K, 100 kPa, x1 = 0.8264	–	34.1 ± 2.2
297.85 K, 100 kPa, x1 = 1	–	51.4 ± 3
298 K, 100 kPa, x1 = 0.02	0.415 ± 0.0042	–
298 K, 100 kPa, x1 = 0.03	0.5634 ± 0.0056	–
298 K, 100 kPa, x1 = 0.05	–	1.663 ± 0.011
298 K, 100 kPa, x1 = 0.06	0.8844 ± 0.0088	–
298 K, 100 kPa, x1 = 0.07	0.958 ± 0.0096	–
298 K, 100 kPa, x1 = 0.0999	–	2.413 ± 0.019
298 K, 100 kPa, x1 = 0.1	1.118 ± 0.011	–
298 K, 100 kPa, x1 = 0.1999	–	4.331 ± 0.036
298 K, 100 kPa, x1 = 0.2	1.28 ± 0.13	–
298 K, 100 kPa, x1 = 0.2993	–	6.629 ± 0.068
298 K, 100 kPa, x1 = 0.3	1.216 ± 0.012	–
298 K, 100 kPa, x1 = 0.397	–	9.56 ± 0.12
298 K, 100 kPa, x1 = 0.4	1.09 ± 0.11	–
298 K, 100 kPa, x1 = 0.4836	–	12.74 ± 0.18
298 K, 100 kPa, x1 = 0.5	0.9534 ± 0.0095	–
298 K, 100 kPa, x1 = 0.6	0.8239 ± 0.0082	–
298 K, 100 kPa, x1 = 0.6978	–	23.61 ± 0.45
298 K, 100 kPa, x1 = 0.7	0.6839 ± 0.0068	–
298 K, 100 kPa, x1 = 0.8	0.575 ± 0.0058	–
298 K, 100 kPa, x1 = 0.8001	–	30.86 ± 0.66
298 K, 100 kPa, x1 = 0.8987	–	38.32 ± 0.9
298 K, 100 kPa, x1 = 0.9	0.4819 ± 0.0048	–
298 K, 100 kPa, x1 = 1	–	49.7 ± 1.3
298.15 K, 100 kPa, x1 = 0.2129	–	4.64 ± 0.23
298.15 K, 100 kPa, x1 = 0.2688	–	5.73 ± 0.33
298.15 K, 101 kPa, x2 = 0.1174	–	38.5 ± 0.95
298.45 K, 100 kPa, x1 = 0.6609	–	21 ± 1.2
298.45 K, 100 kPa, x1 = 0.747	–	27 ± 1.5
298.76 K, 100 kPa, x1 = 0.4215	–	10.58 ± 0.58
298.76 K, 100 kPa, x1 = 0.8264	–	32.6 ± 2.1
299.06 K, 100 kPa, x1 = 0.2129	–	4.55 ± 0.23
299.06 K, 100 kPa, x1 = 0.5784	–	17.18 ± 0.93
299.06 K, 100 kPa, x1 = 0.6609	–	20.6 ± 1.2
299.67 K, 100 kPa, x1 = 0.4606	–	11.41 ± 0.65
299.97 K, 100 kPa, x1 = 0.2129	–	4.45 ± 0.22
299.97 K, 100 kPa, x1 = 0.5784	–	16.72 ± 0.9
300.27 K, 100 kPa, x1 = 0.2129	–	4.42 ± 0.22
300.27 K, 100 kPa, x1 = 0.4215	–	10.11 ± 0.55
300.27 K, 100 kPa, x1 = 0.747	–	25.4 ± 1.4
300.27 K, 100 kPa, x1 = 0.8264	–	30.7 ± 1.9
300.58 K, 100 kPa, x1 = 0.4215	–	10.02 ± 0.55
300.88 K, 100 kPa, x1 = 0.2688	–	5.37 ± 0.31
300.88 K, 100 kPa, x1 = 0.4215	–	9.92 ± 0.54
301.18 K, 100 kPa, x1 = 0.2688	–	5.34 ± 0.3
301.48 K, 100 kPa, x1 = 0.2129	–	4.3 ± 0.22
302.7 K, 100 kPa, x1 = 0.2129	–	4.18 ± 0.21
302.7 K, 100 kPa, x1 = 0.2688	–	5.15 ± 0.29
302.7 K, 100 kPa, x1 = 0.747	–	23.5 ± 1.3
302.7 K, 100 kPa, x1 = 0.8264	–	28.1 ± 1.8
303 K, 100 kPa, x1 = 0.4606	–	10.38 ± 0.58
303 K, 100 kPa, x1 = 0.747	–	23.2 ± 1.3
303.3 K, 100 kPa, x1 = 0.2688	–	5.08 ± 0.29
303.91 K, 100 kPa, x1 = 0.8264	–	26.8 ± 1.7
304.52 K, 100 kPa, x1 = 0.4606	–	9.95 ± 0.56
304.52 K, 100 kPa, x1 = 0.5784	–	14.59 ± 0.78
304.52 K, 100 kPa, x1 = 1	–	39.3 ± 2.4
304.82 K, 100 kPa, x1 = 0.2688	–	4.9 ± 0.28
304.82 K, 100 kPa, x1 = 0.4215	–	8.85 ± 0.48
304.82 K, 100 kPa, x1 = 0.747	–	21.9 ± 1.2

Reference: the CheMixHub ionic liquid set
